Laboratory results published in patent US20190151304A1, “METHODS AND PHARMACEUTICAL COMPOSITIONS FOR THE TREATMENT OF AUTOIMMUNE INFLAMMATORY” (INSERM (INSTITUT NATIONAL DE LA SANTÉ ET DE LA RECHERCJAE …, priority 2016, published 2019).
No end group written: not given here.

Test system: DSS-induced colitis mice
Experiment: DSS-induced colitis mice model (Disease Activity Index, colon length)
Type: in vivo, Balb/c mice
Text: FIG. 2: OXA ameliorates the DAI (weight and colitis score) of DSS-induced colitis mice. Mice were orally treated with 5% DSS for 7 days in the presence or in the absence of daily intraperitoneal injection of OxA (0.22 μmoles/kg). Left, determination of gain or loss of weight in the absence of DSS treatment (Control,▴), in the presence of DSS treatment (DSS,▪) and in the presence of DSS associated to OxA treatment (DSS+OxA,●). Right, evaluation of Disease Activity Index (DAI) scored by measuring weight, length of colon, diarrhea and blood presence in the stool in DSS untreated control mice (Control,A), in DSS treated mice (DSS,▪) and in DSS treated mice associated to OxA treatment (DSS+OxA,●).
FIG. 14: Effect of daily ip inoculation of OxA, Suvorexant and Almorexant on the length of colon from DSS—(dextran sulfate sodium) treated mice mimicking the acute ulcerative colitis disease. A. Mice were treated with 5% (w/v) DSS in drinking water and daily injected with 20 μg of OxA (OXA IP), 20 μg of Suvorexant (Suvo) or 20 μg of Almorexant (Almo). Control (wt) or treated DSS mice (DSS) were daily injected with 100 μl PBS. After one week of treatment, mice were sacrificed and the length of colon which represented a good marker of inflammation state, was measured. […] B. quantification of colon length from 5 different DSS-treated mice injected with OxA (DSS+OXA IP), Almorexant (DSS+Almo), Suvorexant (DSS+Suvo) or not injected (WT and DSS). NS, no significant; *, p<0.05; ** p<0.001
Based on these observations, we have investigated the effect of Orexin A (OxA) on acute inflammation in mice treated with Dextran Sulfate Sodium (DSS). OxA was preferentially chosen in these experiments since the presence of two disulphide bridges confers it more stability. DSS induces acute colitis characterized by weight loss, bloody diarrhea, intestinal ulcerations and infiltrations with granulocytes.
DSS-induced colitis mice models: Balb/c mice were orally treated by 5% (w/v) of Dextran Sulfate Sodium (DSS) for 7 days. Orexin treatment was carried out in DSS treated mice by daily intraperitoneal injection of OxA (0.22 μmoles/kg) for 7 days. Weight and colitis symptoms (diarrhea, blood in the stool . . . ) for each mouse was daily measured. After 7 days of treatment, animals were sacrificed and colons were resected to further analyses (size, histological aspect, cytokine assays).
The inventors have thus investigated the effect of daily intraperitoneal inoculation of OxA, Suvorexant and Almorexant in the experimental context of EXAMPLE 1 (colitis). In particular they investigated the effects of the drugs on the length of colon from DSS-(dextran sulfate sodium) treated mice mimicking the acute ulcerative colitis disease. […]

OxA: neuropeptide, endogenous ligand of OX1R and OX2R, with two disulphide bridges (QPLPDCCRQKTCSCRLYELLHGAGNHAAGILTL; disulfide (positions not given here); ends not checked; also: two disulphide bridges, pairing not given here; UniProt O43612 34-66, looked up)
Protection from DSS induced acute ulcerative colitis (length of colon) (5% DSS in drinking water, 20 μg daily ip, one week): protect mice from DSS induced acute ulcerative colitis disease | Disease Activity Index (DAI) scored by measuring weight, length of colon, diarrhea and presence of blood in the stool (5% DSS orally 7 days, daily intraperitoneal OxA 0.22 μmoles/kg): ameliorates
